The results in this text go back to article PMC5438914 (SLAS discovery, 2016).

SMILES strings stand for the structures. pIC50: −log10 of the molar value. Read-outs that look alike come from different tables or passages of the source.

For orientation: pIC50 means the negative decadic logarithm of the IC50, by convention in mol/L. High values mean a small IC50, low ones a large IC50.

In one data set the test system is S. aureus. The data set is described as follows: time-kill experiments. The note with it: 4× MIC; for bacteriostatic or bactericidal: 0 to 24 h.
Another data set concerns H. influenzae. The data set is described as follows: time-kill experiments. The note with it: 4× MIC; for bacteriostatic or bactericidal: 0 to 24 h.
For data set [1], the system named is human embryonic kidney 293 cells (HEK-293).
The test system of data set [2] is EF-Tu, EF-Ts, EF-G, and PheRS. The experiment in a line: specificity assays against the accessory proteins of the A/T system. Particulars: tested against each of the four accessory proteins. The class given is biochemical, Pseudomonas aeruginosa.
For data set [3], the target named is T1, PheRS (Pseudomonas aeruginosa, UniProt Q9I0A3+Q9I0A4). The data set is described as follows: tRNA aminoacylation assay. The class given is biochemical.
The test system of data set [4] is human embryonic kidney 293 cells (HEK-293). The data set is described as follows: MTT cytotoxicity test. The note with it: HEK-293, MTT, 24 h. In general terms: Tetrazolium dyes change colour on reduction, which living cells bring about.
Data set [5] concerns the target T2, human mitochondrial PheRS (hmPheRS) (Homo sapiens, UniProt O95363).
T2 sequence (O95363 1-451): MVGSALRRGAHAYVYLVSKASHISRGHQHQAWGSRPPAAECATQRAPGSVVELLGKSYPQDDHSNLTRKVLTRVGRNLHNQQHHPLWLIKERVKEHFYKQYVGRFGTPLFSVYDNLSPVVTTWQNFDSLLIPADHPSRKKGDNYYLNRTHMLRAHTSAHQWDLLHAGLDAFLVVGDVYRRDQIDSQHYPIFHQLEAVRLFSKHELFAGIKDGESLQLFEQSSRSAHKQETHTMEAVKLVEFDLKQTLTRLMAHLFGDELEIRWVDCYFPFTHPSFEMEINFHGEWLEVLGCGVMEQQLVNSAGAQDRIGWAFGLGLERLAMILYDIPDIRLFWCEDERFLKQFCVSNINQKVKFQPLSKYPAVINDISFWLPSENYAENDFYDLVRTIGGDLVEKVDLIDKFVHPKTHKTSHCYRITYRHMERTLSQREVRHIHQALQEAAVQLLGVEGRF
The experiment in a line: hmPheRS aminoacylation assay. The class given is biochemical. The note with it: 0.4 to 200 µM; at high concentrations.

In data set [6] the target is T1, PheRS. The data set is described as follows: competition assays with PheRS substrates ATP and Phe. The class given is biochemical. The note with it: IC50 at ATP 25-1000 µM or Phe 25-300 µM; data not shown.
Data set [7] concerns eukaryotic protein synthesis in wheat germ cell extract. The data set is described as follows: wheat germ cell extract poly-Phe protein synthesis assay. Format: biochemical. The note with it: at 30 µM.

T1 sequence (Q9I0A3 whole entry): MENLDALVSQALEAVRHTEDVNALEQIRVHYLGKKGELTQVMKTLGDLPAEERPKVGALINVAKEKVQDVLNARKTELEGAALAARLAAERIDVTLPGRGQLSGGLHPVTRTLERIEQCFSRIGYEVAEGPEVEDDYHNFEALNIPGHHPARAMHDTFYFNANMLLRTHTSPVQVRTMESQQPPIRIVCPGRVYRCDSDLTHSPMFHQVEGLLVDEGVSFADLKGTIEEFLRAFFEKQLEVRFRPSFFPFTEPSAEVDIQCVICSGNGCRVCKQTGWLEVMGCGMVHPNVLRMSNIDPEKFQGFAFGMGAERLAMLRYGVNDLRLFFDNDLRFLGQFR
T1 sequence (Q9I0A4 whole entry): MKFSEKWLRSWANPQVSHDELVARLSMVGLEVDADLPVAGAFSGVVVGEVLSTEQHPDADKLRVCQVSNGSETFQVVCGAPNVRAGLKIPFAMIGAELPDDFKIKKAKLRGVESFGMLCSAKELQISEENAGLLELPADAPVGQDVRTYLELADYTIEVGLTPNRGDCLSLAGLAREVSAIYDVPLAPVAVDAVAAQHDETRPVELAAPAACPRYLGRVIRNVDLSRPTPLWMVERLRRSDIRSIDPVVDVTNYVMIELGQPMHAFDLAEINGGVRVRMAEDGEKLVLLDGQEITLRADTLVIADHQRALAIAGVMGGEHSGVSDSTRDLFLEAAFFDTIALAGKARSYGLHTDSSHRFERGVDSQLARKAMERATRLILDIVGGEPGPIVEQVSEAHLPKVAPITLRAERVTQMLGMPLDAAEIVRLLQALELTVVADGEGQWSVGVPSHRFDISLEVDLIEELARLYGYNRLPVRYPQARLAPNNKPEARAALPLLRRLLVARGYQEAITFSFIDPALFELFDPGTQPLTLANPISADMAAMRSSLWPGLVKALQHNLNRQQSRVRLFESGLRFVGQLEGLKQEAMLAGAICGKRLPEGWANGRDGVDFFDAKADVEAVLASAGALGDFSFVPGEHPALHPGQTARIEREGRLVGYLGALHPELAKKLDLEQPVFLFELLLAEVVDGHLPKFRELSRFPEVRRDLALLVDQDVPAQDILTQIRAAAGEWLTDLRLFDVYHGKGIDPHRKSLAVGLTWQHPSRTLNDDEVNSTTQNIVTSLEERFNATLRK

`N=C(N)NN=C(/C=C/c1ccc([N+](=O)[O-])o1)/C=C/c1ccc([N+](=O)[O-])o1` [BT06D07, difurazone]: the bacteriostatic or bactericidal entry in the data set with S. aureus and in the data set on H. influenzae was “bactericidal” throughout. Also, the “growth in time-kill cultures” value with S. aureus (up to 24 h) and with H. influenzae (up to 24 h) was “inhibited the growth of both bacteria completely during all times tested” throughout. Besides, the “IC50 (or CC50) for inhibition of cell growth” value in [1] is greater than 400 µg/mL. For the same compound, the “specificity for a single component of the A/T assay” value in [2] is “did not inhibit an accessory protein”.
Consider `O=C(N/N=C/c1ccc([N+](=O)[O-])o1)c1cc([N+](=O)[O-])cc([N+](=O)[O-])c1O` [BT06G06, nifursol], for which the negative logarithm of the IC50 (pIC50) at PheRS [3] was 4.22. For the same compound, the bacteriostatic or bactericidal result in the data set with S. aureus and with H. influenzae was “bacteriostatic” throughout. The “decrease in colony-forming units (CFU) compared with the control” value with S. aureus (during the first 6 h) and in the data set on H. influenzae (during the first 6 h) was 2 to 4 log10 in each case. Also, in data set [4], the “IC50 (or CC50) for inhibition of cell growth” value came to 18.5 µg/mL. Also, in data set [5], the “effect on the activity of hmPheRS” value is reported as “only modestly affected”. The “specificity for a single component of the A/T assay” value in data set [2] is reported as “specifically inhibit PheRS”. Besides, the “mechanism of inhibition with respect to ATP and Phe” value at PheRS [6] was “noncompetitive with both of the natural substrates”.
Take `C[C@@H]1C[C@@H]([C@H](O)CC2CC(=O)NC(=O)C2)C(=O)[C@@H](C)C1` [cycloheximide]: in data set [7], the “inhibition of protein synthesis” value is listed as “greater than 80%”.
